Experimental data from PMC11811597, “Phenomics‐Based Discovery of Novel Orthosteric Choline Kinase Inhibitors” (Angewandte Chemie (International Ed. in English), 2025).

How the values were obtained:
[1] = tested on: primary human cell‐based tissue and disease models; experiment: BioMAP Diversity PLUS panel; details: 12 systems, Pearson's correlation >0.7
From the text: Having confirmed that UNC0638 and UNC0737 are potent bona fide CHKA inhibitors, we next turned our attention to further investigate the role of CHKA in cellular signalling. While CHKA has been studied extensively in the context of malignant disease, there has been a growing acknowledgment of its relevance in immune metabolism.[9, 10] […] We profiled UNC0638 and UNC0737 alongside the orthogonal CHKA inhibitors V‐11‐0711 and ARIAD against the BioMAP Diversity PLUS panel (Figures S7).[24] This set comprises 148 distinct biomarkers across 12 systems, including panels for systemic immune responses. […] The decrease in IgG secretion was accompanied by a reduction in stimulation‐induced B cell maturation into CD27^+IgD^− memory CD19^+ B cells (Figure 4D). […]
consecutive concentrations change in the same direction relative to vehicle controls, are outside of the significance envelope, and have at least one concentration with an effect size > 20% (|log10ratio| > 0.1). Biomarker key activities are described as modulated if these activities increase in some systems, but decrease in others. Cytotoxicity is indicated on the profile plot by a thin black arrow above the x- […]
Cytotoxicity and antiproliferative arrows only require one concentration to meet the indicated threshold for profile annotation. […]

CHKA [2] = biological target: T1, CHKA (Homo sapiens, UniProt P35790); experiment: Differential scanning fluorimetry (DSF); type: binding; set-up: host or cells: E. coli BL21(DE3); details: 10 µM compound, 2 µM CHKA
Protocol: mM NaCl, 5% glycerol, 500 mM imidazole, 0.5% TCEP, pH 7.5), the eluent was concentrated, and further purified by size exclusion chromatography using a HiLoad 16/600 Superdex S200 column (Cytiva) pre-equilibrated in Buffer C (20 mM HEPES, 150 mM NaCl, pH 7.5). The resulting protein purity was assessed by SDS-PAGE, and protein identity was confirmed by tryptic digest analysis. Protein concentration was determined to be 35.5 mg/mL, and was calculated using a theoretical molar extinction coefficient of 58830 M-1cm-1 as determined by ProtParam.[5] […]
Differential Scanning Fluorimetry (DSF)
DSF buffer (20 mM HEPES, 150 mM NaCl, 0.5 mM TCEP, pH 7.5) containing 5x SYPRO Orange (Thermo Fisher Scientific) and CHKA (2 µM) was incubated with 10 µM compound at 2% DMSO final concentration in a 96-well semi-skirted real time PCR plate. Fluorescence was measured in each well over a 40-80 °C gradient using a Stratagen MX3005p qPCR instrument (Agilent Technologies). […]

[3] = tested on: MCF7, MDA‐MB‐231, HEK293, HepG2, U2OS and K562 cells; experiment: 72 h cell viability assay (Cell Titer-Glo); type: cell-based, human; details: 0-50 μM
From the text: We compared morphological fingerprints of multiple parameters to assess overall biological similarity (Biol. Sim.) (Figure 1B).
A-366 and UNC0638 were purchased from Tocris. ARIAD and V-11-07-11 were purchased from Wuxi Apptec. UNC0737 and UNC0965 were synthesised as previously described.[1] Hemicholinium-3 and pyruvate kinase/lactic dehydrogenase enzymes were purchased from Sigma Aldrich. Aqueous and organic solvents were MS-grade and acquired by Sigma Aldrich unless stated otherwise.
MDA-MB-231, MCF7 and HEK293 cells were cultured in DMEM (Gibco, #11965092) supplemented with 10% FBS. K562 were cultured in IMDM (Gibco, #12440053) supplemented with 10% FBS. HepG2 were cultured in MEM (Gibco, #11095080) supplemented with 10 % FBS. […]
cultured in McCoy’s 5A (Sigma, M8403) supplemented with 10 % FBS and 1x GlutaMAX (Gibco, #35050061). Cells were maintained at 37 °C in a humidified 5% CO2 atmosphere. Peripheral blood mononuclear cells (PBMC) were isolated from healthy blood donors by density centrifugation.
MDA-MB-231, MCF7 or HEK293 cells (7.5 × 10^4 cells/mL) were each plated into x1 white 384-well polystyrene plate (Greiner Bio-One Ltd). A-366, […] and UNC0737 were directly added to each well of the cell line plates, at final concentrations 0-50 μM and incubated for 72 h at 37 °C/ 5% CO2.
Cell Titer-Glo® reagent was added to each well and total luminescence readings were performed within 15 min using the PHERAstar FSX (BMG Labtech). The cell viability results were normalised to the DMSO control and plotted using the sigmoidal dose-response (variable slope) equation in […]
Chemical Proteomics Drug Pulldown
For lysate generation MCF7 cells were grown until approximately 80% confluency before being pelleted and washed with PBS. […]
MDA-MB-231, […], HepG2, U2OS and K562 cells following treatment with A-366, UNC0638 and UNC0737 after 72 h measured by Cell Titer Glo assay (n=3). […]

CHKA [4] = biological target: T1, CHKA; experiment: Isothermal calorimetry (ITC); type: binding; set-up: host or cells: E. coli BL21(DE3)
Protocol: mM NaCl, 5% glycerol, 500 mM imidazole, 0.5% TCEP, pH 7.5), the eluent was concentrated, and further purified by size exclusion chromatography using a HiLoad 16/600 Superdex S200 column (Cytiva) pre-equilibrated in Buffer C (20 mM HEPES, 150 mM NaCl, pH 7.5). The resulting protein purity was assessed by SDS-PAGE, and protein identity was confirmed by tryptic digest analysis. Protein concentration was determined to be 35.5 mg/mL, and was calculated using a theoretical molar extinction coefficient of 58830 M-1cm-1 as determined by ProtParam.[5]
Isothermal Calorimetry (ITC)
ITC experiments were performed in a buffer containing 20 mM HEPES pH 7.5 and 200 mM NaCl, using an VP-ITC microcalorimeter (MicroCal) at 15 °C. The protein concentration was 200 µM and compounds were tested at 20 µM. The titrations were conducted using an initial injection of 4 μL followed by further 29 injections of 8 μL each. Thermodynamic parameters were calculated using ΔG = ΔH − TΔS = −RT ln KB, where ΔG, ΔH, and ΔS are the changes in free energy, enthalpy, and entropy of binding, respectively. Single binding models were employed to fit the data. […]

T1 sequence (P35790 75-457 limits assumed): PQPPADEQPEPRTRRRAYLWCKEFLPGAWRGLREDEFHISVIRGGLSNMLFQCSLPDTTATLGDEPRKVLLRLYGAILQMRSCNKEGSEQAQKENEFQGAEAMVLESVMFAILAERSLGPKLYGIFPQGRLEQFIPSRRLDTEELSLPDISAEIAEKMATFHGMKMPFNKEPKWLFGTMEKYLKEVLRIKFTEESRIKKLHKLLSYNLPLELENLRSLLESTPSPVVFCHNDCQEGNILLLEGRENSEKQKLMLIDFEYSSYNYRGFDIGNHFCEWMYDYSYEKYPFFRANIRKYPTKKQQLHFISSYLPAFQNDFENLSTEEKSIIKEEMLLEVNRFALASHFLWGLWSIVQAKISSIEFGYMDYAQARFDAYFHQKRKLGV

| Structure (SMILES) | clustering of overall BioMAP responses across all biomarkers [1] | thermal stabilisation of CHKA (DSF) (CHKA [2]) | effect on cell viability [3] | Kd (CHKA [4]) [nM] |
| --- | --- | --- | --- | --- |
| COc1cc2c(cc1OCCCN1CCCC1)N=C(N)C21CCC1 [A‐366] | did not exhibit any overlap | not | less efficient in inducing cancer cell death | – |
| COc1cc2nc(N3CCCN(C)CC3)nc(NC3CCN(Cc4ccccc4)CC3)c2cc1OC [BIX‐01294] | – | exhibited CHKA stabilisation albeit to lesser degree than UNC0737 | – | – |
| C[N+]1(C)CCOC(O)(c2ccc(-c3ccc(C4(O)C[N+](C)(C)CCO4)cc3)cc2)C1 (stereo not drawn) [HC3, hemicholinium‐3] | – | – | – | 40.6 |
| COc1cc2c(NC3CCN(C(C)C)CC3)nc(N3CCC(F)(F)CC3)nc2cc1OCCCN1CCCC1 [UNC0642] | – | exhibited CHKA stabilisation albeit to lesser degree than UNC0737 | – | – |
